From the supplement of paper PMC4862054

What was measured:
[1] = tested on: MDA-MB-468; details: 72 h
How it was run: (§1)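 In this assay, breast cancer cell lines spent 72 h with compound at 5 concentrations in 10-fold steps over a compound-specific 10,000-fold range. The first readout was cell death by CellTox Green fluorescence, and the second was viability by CellTiter-Glo luminescence, each normalised per plate to 0.1 % DMSO and a positive kill control. EC50 came from the dose-response curves, censored at the top concentration.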

[2] = tested on: CAL-120; details: 72 h
How it was run: as §1

[3] = tested on: CAL-51; details: 72 h
How it was run: as §1

[4] = tested on: CAL-85-1; details: 72 h
How it was run: as §1

[5] = tested on: HDQ-P1; details: 72 h
How it was run: as §1

[6] = tested on: MFM-223; details: 72 h
How it was run: as §1

[7] = tested on: MCF-10A; details: 72 h
How it was run: as §1

[8] = tested on: SK-BR-3; details: 72 h
How it was run: as §1

[9] = tested on: CAL-148; details: 72 h
How it was run: as §1

[10] = tested on: MDA-MB-453; details: 72 h
How it was run: as §1

[11] = tested on: MDA-MB-453; details: 72 h; remark: listed apart in the source
How it was run: (§2)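 Plates of 384 wells holding compound in 5 µl medium received breast cancer cell lines in 20 µl suspension and were incubated 72 h. CellTiter-Blue (2.5 µl, 2 h, 37 °C) was used for viability, read at 560/590 nm, and every plate was normalised to vehicle and a positive kill control and assessed by Z'-factor. The EC50 derives from a percent-inhibition dose-response curve fit censored at the highest concentration, leaving out rows whose drug sensitivity score was zero.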

[12] = tested on: MDA-MB-231; test: normalised viability (% of control), CellTiter-Blue; higher = more viable cells (about 100 = DMSO control); details: incubation time: 72 h
How it was run: (§3)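 Breast cancer cell lines were treated for 72 h in 384-well format and measured by CellTiter-Blue fluorescence at 560/590 nm. Results were normalised per plate to vehicle (100) and a positive kill control (0). The entry is normalised viability at a single listed concentration of the series.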

[13] = tested on: DU-4475; details: 72 h
How it was run: as §1

[14] = tested on: CAL-51; details: 72 h; remark: listed apart in the source
How it was run: as §2

[15] = tested on: DU-4475; details: 72 h; remark: listed apart in the source
How it was run: as §2

[16] = tested on: BT-549; details: 72 h
How it was run: as §1

[17] = tested on: BT-474; details: 72 h
How it was run: as §1

[18] = tested on: MDA-MB-231; details: 72 h
How it was run: as §1

[19] = tested on: HCC1937; details: 72 h
How it was run: as §1

[20] = tested on: MDA-MB-468; details: 72 h; remark: listed apart in the source
How it was run: as §2

[21] = tested on: Hs578T; details: 72 h
How it was run: as §2

[22] = tested on: CAL-120; details: 72 h; remark: listed apart in the source
How it was run: as §2

[23] = tested on: BT-549; details: 72 h; remark: listed apart in the source
How it was run: as §2

[24] = tested on: MDA-MB-231; details: 72 h; remark: listed apart in the source
How it was run: as §2

[25] = tested on: MDA-MB-436; details: 72 h
How it was run: as §2

[26] = tested on: HCC1937; details: 72 h; remark: listed apart in the source
How it was run: as §2

[27] = tested on: MFM-223; details: 72 h; remark: listed apart in the source
How it was run: as §2

[28] = tested on: HCC1143; details: 72 h
How it was run: as §2

[29] = tested on: HCC1599; details: 72 h
How it was run: as §2

[30] = tested on: SK-BR-3; details: 72 h; remark: listed apart in the source
How it was run: as §2

[31] = tested on: CAL-85-1; details: 72 h; remark: listed apart in the source
How it was run: as §2

[32] = tested on: HDQ-P1; details: 72 h; remark: listed apart in the source
How it was run: as §2

[33] = tested on: CAL-148; details: 72 h; remark: listed apart in the source
How it was run: as §2

[34] = tested on: CAL-51; test: normalised viability (% of control), CellTiter-Blue; higher = more viable cells (about 100 = DMSO control); details: incubation time: 72 h
How it was run: as §3

[35] = tested on: CAL-85-1; test: as above; details: incubation time: 72 h
How it was run: as §3

[36] = tested on: HDQ-P1; test: as above; details: incubation time: 72 h
How it was run: as §3

[37] = tested on: CAL-148; test: as above; details: incubation time: 72 h
How it was run: as §3

[38] = tested on: MDA-MB-453; test: as above; details: incubation time: 72 h
How it was run: as §3

[39] = tested on: DU-4475; test: as above; details: incubation time: 72 h
How it was run: as §3

[40] = tested on: HCC1599; details: 72 h; remark: listed apart in the source
How it was run: as §1

CCOc1cc2ncc(C#N)c(Nc3ccc(OCc4ccccn4)c(Cl)c3)c2cc1NC(=O)/C=C/CN(C)C [Neratinib] was tested, and the “EC50, CellTiter-Glo” value [1] was 539 nM, the “EC50, CellTiter-Glo” value [2] was 412 nM and the “EC50, CellTiter-Glo” value [3] was 926 nM. For the same molecule, the “EC50, CellTiter-Glo” value [4] was 91.2 nM, the “EC50, CellTiter-Glo” value [5] was 309 nM and the “EC50, CellTiter-Glo” value [6] was 692 nM. The “EC50, CellTiter-Glo” value [7] was 57.8 nM, the “EC50, CellTiter-Glo” value [8] was 2.49 nM and the “EC50, CellTiter-Glo” value [9] was 95.2 nM. For the same molecule, the “EC50, CellTiter-Glo” value [10] was 7.56 nM, the “EC50, CellTiter-Blue viability” value [11] was 12.5 nM and the normalised viability ([12]; 1 nM) was 114%. The normalised viability ([12]; 100 nM) was 131% and the normalised viability ([12]; 1000 nM) was 135%.

In the case of COc1ccc(C2=N[C@@H](c3ccc(Cl)cc3)[C@@H](c3ccc(Cl)cc3)N2C(=O)N2CCNC(=O)C2)c(OC(C)C)c1 [Nutlin-3], the “EC50, CellTiter-Glo” value [3] was 17.6 nM, the “EC50, CellTiter-Glo” value [9] was 7030 nM and the “EC50, CellTiter-Glo” value [10] was 7190 nM. The “EC50, CellTiter-Glo” value [13] was 2950 nM, the “EC50, CellTiter-Blue viability” value [14] was 2750 nM and the “EC50, CellTiter-Blue viability” value [15] was 6310 nM. The normalised viability ([12]; 10 nM) was 102%, the normalised viability ([12]; 1000 nM) was 97.7% and the normalised viability ([12]; 10000 nM) was 104%.

COC1=CC(c2cc3ccccc3[nH]2)=N/C1=C\c1[nH]c(C)cc1C [Obatoclax] was tested, and the “EC50, CellTiter-Glo” value [1] was 664 nM, the “EC50, CellTiter-Glo” value [3] was 3920 nM and the “EC50, CellTiter-Glo” value [16] was 3600 nM. The “EC50, CellTiter-Glo” value [17] was 128 nM, the “EC50, CellTiter-Glo” value [4] was 126 nM and the “EC50, CellTiter-Glo” value [18] was 131 nM. The “EC50, CellTiter-Glo” value [19] was 153 nM, the “EC50, CellTiter-Glo” value [8] was over 10000 nM and the “EC50, CellTiter-Glo” value [10] was 2620 nM. The “EC50, CellTiter-Blue viability” value [20] was 105 nM, the “EC50, CellTiter-Blue viability” value [21] was 162 nM and the “EC50, CellTiter-Blue viability” value [22] was 25.9 nM. The “EC50, CellTiter-Blue viability” value [23] was 192 nM, the “EC50, CellTiter-Blue viability” value [24] was 73.2 nM and the “EC50, CellTiter-Blue viability” value [25] was 99.1 nM. The “EC50, CellTiter-Blue viability” value [26] was 22.4 nM, the “EC50, CellTiter-Blue viability” value [27] was 1010 nM and the “EC50, CellTiter-Blue viability” value [28] was 171 nM. The “EC50, CellTiter-Blue viability” value [29] was 678 nM, the “EC50, CellTiter-Blue viability” value [30] was 38.1 nM and the “EC50, CellTiter-Blue viability” value [14] was 2060 nM. For the same molecule, the “EC50, CellTiter-Blue viability” value [31] was 982 nM, the “EC50, CellTiter-Blue viability” value [32] was 95.6 nM and the “EC50, CellTiter-Blue viability” value [33] was 3150 nM. The “EC50, CellTiter-Blue viability” value [11] was 632 nM, the “EC50, CellTiter-Blue viability” value [15] was 6650 nM and the normalised viability ([12]; 10 nM) was 77%. It also gave a normalised viability ([12]; 1000 nM) of 11.4% and a normalised viability ([12]; 10000 nM) of 3.22%.

CC(C)(C)c1cc(NC(=O)Nc2ccc(-c3cn4c(n3)sc3cc(OCCN5CCOCC5)ccc34)cc2)no1 [Quizartinib] was tested, and the “EC50, CellTiter-Blue viability” value [23] was 259 nM, the “EC50, CellTiter-Blue viability” value [29] was 878 nM and the normalised viability ([12]; 1 nM) was 104%. The normalised viability ([12]; 100 nM) was 118% and the normalised viability ([12]; 1000 nM) was 89.7%.

CC(C)(C)c1cc(NC(=O)Nc2ccc(-c3cn4c(n3)sc3cc(OCCN5CCOCC5)ccc34)cc2)no1 [Quizartinib] (1000 nM) showed a normalised viability [34] of 103%, a normalised viability [35] of 89.6% and a normalised viability [36] of 111%. The normalised viability [37] was 91.3%, the normalised viability [38] was 60.2% and the normalised viability [39] was 112%.

For COc1cc(Nc2ncc(F)c(Nc3ccc4c(n3)NC(=O)C(C)(C)O4)n2)cc(OC)c1OC [R406], the “EC50, CellTiter-Blue viability” value [23] was 1030 nM, the “EC50, CellTiter-Blue viability” value [24] was 1040 nM and the normalised viability ([12]; 10 nM) was 95.7%. The normalised viability ([12]; 1000 nM) was 77.2% and the normalised viability ([12]; 10000 nM) was 52.5%.

For O=C(c1ccc(OCCN2CCCCC2)cc1)c1c(-c2ccc(O)cc2)sc2cc(O)ccc12 [Raloxifene], the “EC50, CellTiter-Glo” value [1] was 4640 nM, the “EC50, CellTiter-Glo” value [17] was 8260 nM and the “EC50, CellTiter-Glo” value [4] was 3610 nM. For the same molecule, the “EC50, CellTiter-Glo” value [6] was 2260 nM, the “EC50, CellTiter-Glo” value [40] was 9620 nM and the “EC50, CellTiter-Blue viability” value [11] was 9230 nM. For the same molecule, the normalised viability ([12]; 10 nM) was 85.3%, the normalised viability ([12]; 1000 nM) was 89.3% and the normalised viability ([12]; 10000 nM) was 102%.

With O=C(c1ccc(OCCN2CCCCC2)cc1)c1c(-c2ccc(O)cc2)sc2cc(O)ccc12 [Raloxifene] (10000 nM) the normalised viability [34] was 105%, the normalised viability [35] was 98.6% and the normalised viability [36] was 105%. The normalised viability [37] was 125%, the normalised viability [38] was 45.7% and the normalised viability [39] was 113%.
